Measured values as given in patent US20110039873A1, “SUBSTITUTED PYRAZOLO[1,5-a] PYRIDINE COMPOUNDS HAVING MULTI-TARGET ACTIVITY” (priority 2009, published 2011).
Like-named read-outs stand apart in the source and are kept apart here.

Assays:
[1] = test system: at least one of JNK 3 or JNK 2 and at least one of PDE 10 or PDE 4; experiment: Dual inhibition (phosphodiesterase and JNK); assay type: biochemical, human; conditions: IC50 JNK 3 or JNK 2 less than about 5.00 μM and PDE 10 or PDE 4 less than about 20.0 or 30.0 μM
Procedure, shortened: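 JNK2/JNK3: full-length human enzyme with 3 uM ATF2 and 10 uM ATP for 1 h, ATP depletion by luciferase luminescence. PDE4B catalytic domain with 5 uM cAMP, or PDE10A1 with 1 uM cAMP, 1 h; AMP converted to ATP for luminescence. Compounds 0–30 uM; IC50 by nonlinear regression.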

[2] = biological target: T1, recombinant full length human JNK3 enzyme (Homo sapiens, UniProt P53779); experiment: JNK 3 inhibition assay (ATP depletion, luciferase); assay type: biochemical
T1 construct: recombinant full length human JNK2 or JNK3 enzyme; purchased Upstate; host or cells: Sf21 cells
T1 sequence (P53779 whole entry): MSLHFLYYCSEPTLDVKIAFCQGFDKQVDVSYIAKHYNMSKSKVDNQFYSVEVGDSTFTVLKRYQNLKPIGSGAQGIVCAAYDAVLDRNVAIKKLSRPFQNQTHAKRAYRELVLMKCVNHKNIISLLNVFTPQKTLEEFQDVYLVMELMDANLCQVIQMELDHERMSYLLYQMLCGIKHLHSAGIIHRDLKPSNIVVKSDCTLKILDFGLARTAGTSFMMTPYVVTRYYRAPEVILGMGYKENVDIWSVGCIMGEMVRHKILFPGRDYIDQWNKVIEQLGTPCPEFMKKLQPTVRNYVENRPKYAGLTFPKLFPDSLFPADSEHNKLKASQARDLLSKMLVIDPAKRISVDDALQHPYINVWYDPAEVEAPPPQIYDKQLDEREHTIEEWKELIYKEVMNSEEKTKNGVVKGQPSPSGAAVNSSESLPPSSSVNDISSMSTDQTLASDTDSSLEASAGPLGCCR
Procedure: In a 96-well plate, recombinant full length human JNK2 or JNK3 enzyme (40 ng) expressed in Sf21 cells (Upstate) was incubated with the substrate ATF2 (3 uM) for 1 hour in the presence of 10 uM ATP. […] The ATP levels were quantified using luciferase with luminescence read on a Victor Light 1420 luminometer. IC50 calculations were plotted using a nonlinear regression curve fit.

[3] = biological target: T2, catalytic domain of phosphodiesterase 4B enzyme cloned from human brain (Homo sapiens, UniProt Q07343); experiment: PDE4 inhibition assay (PDELight); assay type: biochemical; conditions: 5 uM cAMP; read-out: PDE 4 Inhibition (IC50 in μM)
T2 construct: the catalytic domain of phosphodiesterase 4B enzyme; purchased Scottish Biomedical
T2 sequence (Q07343 330-659 limits assumed): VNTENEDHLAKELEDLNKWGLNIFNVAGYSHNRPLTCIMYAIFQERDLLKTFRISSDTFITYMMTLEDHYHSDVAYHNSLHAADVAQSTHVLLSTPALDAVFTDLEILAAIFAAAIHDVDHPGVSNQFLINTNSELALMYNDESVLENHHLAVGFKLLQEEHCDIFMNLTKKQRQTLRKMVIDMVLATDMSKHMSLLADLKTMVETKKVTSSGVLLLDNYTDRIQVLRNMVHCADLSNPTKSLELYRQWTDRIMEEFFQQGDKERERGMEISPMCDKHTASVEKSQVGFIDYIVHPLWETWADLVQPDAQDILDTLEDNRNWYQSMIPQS
Procedure, shortened: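 Human PDE4B catalytic domain (40 mU/well) incubated with 5 uM cAMP. AMP formed was converted to ATP and measured by luciferase luminescence (PDELight). IC50 derived by nonlinear regression curve fit.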

JNK kinase = experiment: Amyloid beta-induced phosphorylation of JNK kinase (FIG. 2); assay type: cell-based; conditions: neuronal cells stimulated with Amyloid Beta, ELISA
Procedure: (§1) In 96-well plates either human SH-SY5Y neuroblastoma cells at 2.5×10^4 cells/well or E18 rat neuronal cells at 1.5×10^4 cells/well were seeded. To each well the following was added, Amyloid Beta peptide 1-25 (source) at a concentration of 30 uM, retinoic acid (10 uM) and test compounds (0-30 uM) and incubated for 3 hours. Supernatant was discarded and cells were fixed with 4% paraformaldehyde (100 ul/well) for 20 minutes. FACE cell based ELISA assay (Active Motif) was performed specific for quantifying phosphorlyated c-Jun (serine-73).
Neuronal cells were stimulated with Amyloid Beta, the Alzheimer's related peptide, resulting in phosphorylation of JNK kinase as measured by ELISA.

[4] = test system: phosphorylated c-Jun (serine-73); experiment: Phosphorylated c-JUN (A-beta), SH-SY5Y; assay type: cell-based; conditions: Homo sapiens, Amyloid Beta peptide 30 uM, 3 hours, read-out: p-cJun Abeta SH-SY5Y (EC50 in μM)
Procedure: as §1, with “To each well the following was added, Amyloid Beta peptide 1-25 (source) at a concentration of 30 uM, retinoic acid (10 uM) and test compounds (0-30 uM) and incubated for 3 hours.” left out

[5] = Oral pharmacokinetic evaluation; assay type: in vivo, rat; conditions: male, rat, Sprague-Dawley rats, 15 mg/kg oral gavage, plasma
Procedure: Three male Sprague-Dawley rats were dosed orally via gavage with 15 mg/kg of test compound. Serial blood samples were collected from the jugular vein at 5, 15, and 30 min, 1, 3, and 6 hours post dosing. Samples were processed for plasma via centrifugation and plasma samples were stored frozen prior to analysis via a sensitive and specific HPLC/MS/MS method. PK parameters were calculated using WinNonLin (Pharsight).

[6] = test system: Mouse BV-2 microglial cells; experiment: BV-2 glial cell assay (TNF-α and MCP-1 by Luminex); assay type: cell-based; conditions: for EC50: Mus musculus, BV-2, LPS and IFN-γ activated, 20 hours
Procedure: Mouse BV-2 microglial cells were seeded on 96-well plates at a concentration of 3×10^4 cells/well. Cells were activated with 100 ng/mL LPS and IFN-γ (100 ng/mL) in the presence or absence of test compounds (0-30 uM). Following incubation for 20 hours, cells were spun down and supernatant collected. The supernatant was analyzed via Luminex for the presence of TNF-α and MCP-1.

[7] = test system: phosphorylated c-Jun (serine-73); experiment: Phosphorylated c-JUN (6-OHDA), SH-SY5Y; assay type: cell-based; conditions: Homo sapiens, 50 uM 6-hydroxydopamine, 1.5 hours, read-out: p-cJun 6-OHDA SH-SY5Y (EC50 in μM)
Procedure: Human SH-SY5Y neuroblastoma cells were cultured in 96-well plates with 2.5×10^4 cells/well and incubated for 48 hours. 6-hydroxydopamine was added at a concentration of 50 uM in the presence or absence of test compounds (0-30 uM) and incubated for 1.5 hours. Supernatant was discarded and cells were fixed with 4% paraformaldehyde (100 ul/well) for 20 minutes. FACE cell based ELISA assay (Active Motif) was performed specific for quantifying phosphorlyated c-Jun (serine-73).

[8] = biological target: T3, recombinant human phosphodiesterase 10A1 enzyme (Homo sapiens, UniProt Q9Y233); experiment: PDE10 inhibition assay (PDELight); assay type: biochemical; conditions: 1 uM cAMP; read-out: PDE 10 Inhibition (IC50 in μM)
T3 construct: purchased BPS Biosciences; host or cells: Baculovirus infected Sf9 cells
T3 sequence (Q9Y233 1-779 isoform Q9Y233-1): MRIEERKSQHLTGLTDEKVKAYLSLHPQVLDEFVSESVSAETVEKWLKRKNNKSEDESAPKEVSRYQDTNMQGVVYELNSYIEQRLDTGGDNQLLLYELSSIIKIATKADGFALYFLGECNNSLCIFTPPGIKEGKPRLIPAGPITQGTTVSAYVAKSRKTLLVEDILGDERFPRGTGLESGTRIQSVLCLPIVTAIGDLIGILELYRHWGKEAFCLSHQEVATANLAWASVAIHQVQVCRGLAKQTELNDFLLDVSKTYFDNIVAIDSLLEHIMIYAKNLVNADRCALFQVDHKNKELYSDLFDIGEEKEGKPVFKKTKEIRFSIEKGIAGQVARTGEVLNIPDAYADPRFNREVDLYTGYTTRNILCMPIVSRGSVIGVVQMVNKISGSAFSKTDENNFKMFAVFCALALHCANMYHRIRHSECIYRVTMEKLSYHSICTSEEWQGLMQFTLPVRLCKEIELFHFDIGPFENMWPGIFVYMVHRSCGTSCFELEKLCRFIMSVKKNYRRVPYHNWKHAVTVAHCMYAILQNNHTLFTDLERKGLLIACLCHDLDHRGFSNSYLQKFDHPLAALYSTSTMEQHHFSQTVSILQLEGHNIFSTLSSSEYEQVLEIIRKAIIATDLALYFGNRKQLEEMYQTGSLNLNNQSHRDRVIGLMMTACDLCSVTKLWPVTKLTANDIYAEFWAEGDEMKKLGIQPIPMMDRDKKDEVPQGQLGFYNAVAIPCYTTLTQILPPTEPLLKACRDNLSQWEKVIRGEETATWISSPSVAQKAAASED

Cc1cccc2c(-c3ccnc(NC4CCCC4)n3)cnn12 [AV1184, N-cyclopentyl-4-(7-methylpyrazolo[1,5-a]pyridin-3-yl)pyrimidin-2-amine]
dual inhibition (phosphodiesterase and JNK) [1]: effective dual inhibitors | IC50 ([2]; 10 uM ATP, ATF2 substrate): 0.4 µM | JNK-3 inhibition (in words) ([2]; see Table 2): particularly effective | IC50 [3]: 15.5 µM | inhibition of amyloid beta-induced phosphorylation of JNK kinase (JNK kinase): capable of inhibiting phosphorylation of JNK kinase in a dose-dependent manner | EC50 [4]: 8.3 µM | AUC(0-t) ([5]; read-out: Oral PK AUClast): < 10 ng·h/mL | Cmax ([5]; read-out: Oral PK Cmax): < 5 ng/mL | EC50 ([6]; read-out: MCP-1 BV-2 (EC50 in μM)): 0.9 µM | EC50 ([6]; read-out: TNF-a BV-2 (EC50 in μM)): 0.3 µM | inhibiting glial cell activation (TNF-α and/or MCP-1) ([6]; Table 3): Particularly effective | EC50 [7]: 0.7 µM | IC50 [8]: 32 µM
